Measurements published in US20250057928A1, “VACCINE COMPOSITION FOR INDUCING ANTI-IL-23 ANTIBODY” (OSAKA UNIVERSITY, priority 2021, published 2025).
Where no end group is shown, it is not given here.

How the values were obtained:
[1] = test system: hairless rats; experiment: Psoriasis model, 2% imiquimod (IMQ) applied to auricle of hairless rats; type: in vivo, rat; conditions: 1 mg/body 3 times
Experimental: AJP001 conjugated peptide (SEQ ID NO: 2) was dissolved in physiological saline and intradermally administered to hairless rats (female, 6-week-old, N=6) at 1 mg/body 3 times at two-week intervals. From 6 weeks after the initial administration, 2% imiquimod (IMQ) was intermittently applied to the auricle 4 times in total at 1-day intervals to create a psoriasis model. A 2% IMQ application group was provided as a control group. The drug efficacy was evaluated by measuring the thickness of the auricle with a thickness gauge (Mitutoyo Corporation) from the first day of IMQ application to the eighth day. Furthermore, on the 8th day, histopathological evaluation of the auricular tissue was performed. Specifically, the collected auricle was fixed with 10% neutral formalin, and then a specimen was prepared according to a conventional method and stained with HE. HE-stained specimens were observed under a microscope, and inflammatory cell infiltration, edema, and thickness were scored in 4 stages (0: normal, 1: mild, 2: intermediate, 3: severe) and the total score was calculated. Furthermore, the antibody titer (GMT) of the serum at the time point of 6 weeks was measured by the ELISA method (same method as in Example 1. Anti-Rat IgG (GE Healthcare) was used as the secondary antibody). […]

[2] = test system: epitope peptide; experiment: Antibody titer (GMT) of serum of Macaca fascicularis, ELISA; type: in vivo; conditions: 5 mg/body subcutaneous 3 times at two-week intervals, blood every two weeks until week 16
Experimental: AJP001 conjugated peptide having one of the B cell epitope sequences of SEQ ID NOs: 1-5 was dissolved in physiological saline and intradermally administered twice to BALB/c mice (female, 6-week-old, N=5-6) at 0.5 mg/body at 2-week intervals. Blood was collected before administration and 5 weeks after the initial administration, and the antibody titer against each AJP001 conjugated peptide and the binding ability to recombinant mouse IL-23 protein (rmIL-23) were measured by the ELISA method. […] After washing the wells with PBS-T, TMB solution (SIGMA) was added, the wells were allowed to stand for 30 min in the dark, the reaction was stopped by adding 0.5M H2SO4, and the absorbance at 450 nm was measured using a plate reader. The serum dilution rate that gave 1/2 (OD=1.75) of the maximum absorbance was defined as the antibody titer, and the geometric mean titer: GMT was calculated from the individual values. Binding to IL-23 protein was measured by the ELISA method in the same manner as the antibody titer, using rmIL-23 (Antibodies-online GmbH) as the solid-phased antigen and goat serum for blocking. […] Blood was collected every two weeks from the first day of administration until week 16, and the antibody titer (GMT) and binding to IL-23 of the serum at each time point were measured by the ELISA method (same method as in Example 1; the secondary antibody used was Anti-Monkey IgG (Abcam)). […]

[3] = test system: IL-17 production when mouse splenocytes were stimulated with rhIL-23; experiment: Neutralization activity of IgG purified from monkey antiserum: IL-17 production of mouse splenocytes stimulated with rhIL-23; type: cell-based; conditions: 300 μg/mL of IgG derived from monkey antiserum (6 weeks)
Experimental: AJP001 conjugated peptide (SEQ ID NOs: 6-37) was dissolved in physiological saline, mixed with an equal amount of 2% Alhydrogel (invivogen), and this was intradermally administered to BALB/c mice (female, 6-week-old, N=5-6) at 0.5 mg/body 3 times at two-week intervals. Blood was collected before administration and at the time point of 6 weeks after initial administration, and the antibody titer (GMT) to each epitope sequence and binding ability to recombinant human IL-23 protein (rhIL-23) (Peprotech) were measured by the ELISA method (same method as in Example 1). The binding to rhIL-23 was evaluated by a binding ratio to normal serum by calculating the ratio of the absorbance of a well added with normal mouse serum to the absorbance of a well added with antiserum derived from a mouse administered with each AJP001 conjugated peptide (SEQ ID NOs: 6-37). In addition, the neutralization activity of mouse antiserum was evaluated using an action on IL-17 production in rhIL-23 stimulated mouse splenocyte as an index. […]
Then, IgG was purified using Protein G HP spin Trap (GE Healthcare) from the monkey antiserum obtained 6 weeks after the initial administration, and the action on IL-17 production when mouse splenocytes were stimulated with rhIL-23 was evaluated (same method as in Example 5).

SEQ ID NO 2: AJP001-Ahx-B cell epitope peptide conjugate; epitope SSSQQWQR (mouse 152-159) (not fully specified (N-terminus); listed as Mus musculus)
increase in auricular thickness ([1]; 2% IMQ 4 times from week 6, day 1 to 8): suppressive action
inflammatory changes of tissue (auricle, HE score) ([1]; 2% IMQ, day 8): suppressive action

SEQ ID NO 6: AJP001-Ahx-B cell epitope peptide conjugate; epitope SPSQPWQR (human 151-158) (not fully specified (N-terminus); listed as Homo sapiens)
antibody titer (GMT) over time [2]: increased from 2 weeks after the initial administration and persisted until 16 weeks
IL-17 production [3]: suppressed
